# Source: paper PMC7782793, “Hydroxamic acid-modified peptide microarrays for profiling isozyme-selective interactions and inhibition of histone deacetylases” (Nature Communications, 2021)
# “And” between values parts separate entries of the source, which are not always exact repeats. Equal values may be shown once. Marks after values point to notes of the source that are not given here. Non-standard residues stand in square brackets, D forms with d. Residues, ends and D or L forms follow the SMILES beside them. *: point of attachment. Asu = N[C@@H](CCCCCC(=O)O)C(=O)O; NHOH = ON*
# Experiments:
# [1] = molecular target: T1, HDAC1 (Homo sapiens, UniProt Q13547); experiment: Recombinant HDAC µSPOT microarray binding assay;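 note: slides with spotted peptides incubated with six HDAC concentrations in HEPES buffer pH 7.4, spot intensities fitted by four-parameter logistic, EC50 as enzyme concentration giving half-maximal binding signal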
# T1 construct: HDAC1 (full length, C-terminal His tag, C-terminal FLAG tag, BPS Bioscience, cat. #: 50051); FLAG (C); purchased BPS Bioscience 50051
# [2] = molecular target: T2, HDAC3/NCoR2 (Homo sapiens, UniProt O15379); experiment: Recombinant HDAC µSPOT microarray binding assay;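 note: peptide spots on cellulose slides incubated with rising HDAC enzyme concentrations, imaged together, four-parameter logistic fit, EC50 is enzyme concentration giving half-maximal binding signal, two experiments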
# T2 construct: HDAC3/NCoR2 (full length, C-terminal His tag, NCoR2 N-terminal GST tag); purchased BPS Bioscience 50003
# [3] = molecular target: T1, HDAC1; experiment: HDAC inhibition assay (fluorogenic, Ac-Leu-Gly-Lys(Ac)-AMC); type: biochemical; conditions: for HDAC1 dose-response data (relative enzyme activity), Fig. 6 + S. Fig. 10: duplicate columns
# [4] = molecular target: T3, HDAC2 (Homo sapiens, UniProt Q92769); experiment: as above; type: biochemical; conditions: for HDAC2 dose-response data (relative enzyme activity), Fig. 6 + S. Fig. 10: duplicate columns
# T3 construct: HDAC2 (full length, C-terminal His tag, BPS Bioscience, cat. #: 50002); purchased BPS Bioscience 50002
# [5] = molecular target: T2, HDAC3/NCoR2; experiment: as above; type: biochemical; conditions: for HDAC3 dose-response data (relative enzyme activity), Fig. 6 + S. Fig. 10: duplicate columns
# [6] = molecular target: T4, HDAC8 (Homo sapiens, UniProt Q9BY41); experiment: HDAC inhibition assay (fluorogenic, Ac-Leu-Gly-Lys(Tfa)-AMC); type: biochemical; conditions: for HDAC8 dose-response data (relative enzyme activity, replicate values), Fig. 6 + S. Fig. 10: two replicate columns per inhibitor; for HDAC8 dose-response data (relative enzyme activity), Fig. 6 + S. Fig. 10: duplicate columns
# T4 construct: HDAC8 (full length, C-terminal His tag, BPS Bioscience, cat. #: 50008); purchased BPS Bioscience 50008
# T4 sequence (Q9BY41 1-377): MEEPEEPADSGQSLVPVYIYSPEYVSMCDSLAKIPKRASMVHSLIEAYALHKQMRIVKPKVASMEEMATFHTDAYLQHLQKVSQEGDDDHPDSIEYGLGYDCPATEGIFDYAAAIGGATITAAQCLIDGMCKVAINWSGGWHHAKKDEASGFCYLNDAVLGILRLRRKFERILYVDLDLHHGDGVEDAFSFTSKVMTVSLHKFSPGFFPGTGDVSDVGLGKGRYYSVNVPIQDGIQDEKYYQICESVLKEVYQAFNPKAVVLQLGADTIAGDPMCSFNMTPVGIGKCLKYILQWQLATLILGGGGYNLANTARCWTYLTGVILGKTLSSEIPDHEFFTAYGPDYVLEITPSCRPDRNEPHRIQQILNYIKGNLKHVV
# [7] = molecular target: T5, HDAC6 (Homo sapiens, UniProt Q9UBN7); experiment: HDAC inhibition assay (fluorogenic, Ac-Leu-Gly-Lys(Ac)-AMC); type: biochemical; conditions: for residual enzymatic activity relative to control wells: HDAC6, replicates
# T5 construct: HDAC6 (full length, BPS Bioscience, cat. #: 50056); purchased BPS Bioscience 50056
# T5 sequence (Q9UBN7 1-1215): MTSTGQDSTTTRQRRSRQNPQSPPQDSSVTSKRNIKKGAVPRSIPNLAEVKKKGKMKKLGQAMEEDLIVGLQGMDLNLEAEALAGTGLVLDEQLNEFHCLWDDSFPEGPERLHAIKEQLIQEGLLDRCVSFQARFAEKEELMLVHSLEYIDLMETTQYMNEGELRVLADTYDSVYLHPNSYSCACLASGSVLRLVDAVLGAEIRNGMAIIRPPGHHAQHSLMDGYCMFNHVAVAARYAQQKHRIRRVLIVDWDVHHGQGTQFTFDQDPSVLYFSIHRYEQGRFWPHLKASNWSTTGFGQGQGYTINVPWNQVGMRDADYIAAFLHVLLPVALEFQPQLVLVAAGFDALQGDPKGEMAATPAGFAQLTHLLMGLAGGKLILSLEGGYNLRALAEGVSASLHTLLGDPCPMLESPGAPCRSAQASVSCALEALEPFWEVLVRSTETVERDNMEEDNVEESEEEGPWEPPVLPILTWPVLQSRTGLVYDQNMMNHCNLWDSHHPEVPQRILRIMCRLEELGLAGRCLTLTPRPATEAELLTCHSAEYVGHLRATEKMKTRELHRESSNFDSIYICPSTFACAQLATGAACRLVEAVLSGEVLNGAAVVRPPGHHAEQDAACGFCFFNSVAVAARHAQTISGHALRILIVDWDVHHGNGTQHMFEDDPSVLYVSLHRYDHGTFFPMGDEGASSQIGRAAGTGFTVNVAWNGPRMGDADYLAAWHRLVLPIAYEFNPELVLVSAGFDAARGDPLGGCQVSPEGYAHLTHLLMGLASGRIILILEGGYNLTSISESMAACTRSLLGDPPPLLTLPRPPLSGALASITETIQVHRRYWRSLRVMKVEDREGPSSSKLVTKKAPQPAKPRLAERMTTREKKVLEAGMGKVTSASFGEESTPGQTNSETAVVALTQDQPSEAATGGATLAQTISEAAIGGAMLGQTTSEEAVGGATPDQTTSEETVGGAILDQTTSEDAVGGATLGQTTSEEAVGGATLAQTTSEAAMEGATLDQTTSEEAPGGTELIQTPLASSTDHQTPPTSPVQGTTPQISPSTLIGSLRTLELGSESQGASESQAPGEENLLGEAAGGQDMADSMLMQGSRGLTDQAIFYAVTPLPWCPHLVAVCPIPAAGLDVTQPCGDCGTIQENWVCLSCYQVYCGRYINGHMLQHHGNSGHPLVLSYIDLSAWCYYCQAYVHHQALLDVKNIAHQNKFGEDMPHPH
# [8] = molecular target: T6, HDAC4 (Homo sapiens, UniProt P56524); experiment: HDAC inhibition assay (fluorogenic, Ac-Leu-Gly-Lys(Tfa)-AMC); type: biochemical; conditions: 2 internal replicates
# T6 construct: purchased BPS Bioscience 50004
# [9] = log[inhibitor(M)] -10,5850266520292*, whole line marked with asterisks
# T3 sequence (Q92769 whole entry): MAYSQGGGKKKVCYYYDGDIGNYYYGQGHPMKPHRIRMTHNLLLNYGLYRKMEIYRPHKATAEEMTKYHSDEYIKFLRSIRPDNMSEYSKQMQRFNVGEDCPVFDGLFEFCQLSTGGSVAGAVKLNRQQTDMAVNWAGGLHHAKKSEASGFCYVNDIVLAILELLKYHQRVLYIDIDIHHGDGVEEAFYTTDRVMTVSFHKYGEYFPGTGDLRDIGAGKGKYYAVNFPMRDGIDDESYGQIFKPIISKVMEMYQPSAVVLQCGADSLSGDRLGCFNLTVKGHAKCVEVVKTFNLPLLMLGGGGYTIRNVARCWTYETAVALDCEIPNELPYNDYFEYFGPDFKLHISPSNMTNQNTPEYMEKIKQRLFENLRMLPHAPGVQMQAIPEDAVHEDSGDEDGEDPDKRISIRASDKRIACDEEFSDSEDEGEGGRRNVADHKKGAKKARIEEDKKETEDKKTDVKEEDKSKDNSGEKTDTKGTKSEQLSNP
# T6 sequence (P56524 627-1084): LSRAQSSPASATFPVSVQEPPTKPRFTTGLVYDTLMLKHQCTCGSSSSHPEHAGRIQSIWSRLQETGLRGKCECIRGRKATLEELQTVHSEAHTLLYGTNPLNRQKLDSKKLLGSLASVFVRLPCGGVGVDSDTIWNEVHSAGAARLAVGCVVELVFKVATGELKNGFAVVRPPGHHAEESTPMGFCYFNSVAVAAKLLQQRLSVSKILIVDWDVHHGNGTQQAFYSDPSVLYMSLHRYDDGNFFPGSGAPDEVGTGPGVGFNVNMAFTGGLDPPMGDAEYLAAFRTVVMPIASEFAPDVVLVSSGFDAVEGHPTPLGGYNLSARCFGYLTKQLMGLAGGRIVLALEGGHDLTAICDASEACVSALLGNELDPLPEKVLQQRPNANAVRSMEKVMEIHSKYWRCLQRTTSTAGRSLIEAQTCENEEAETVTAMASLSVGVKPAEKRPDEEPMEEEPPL
# T1 sequence (Q13547 whole entry): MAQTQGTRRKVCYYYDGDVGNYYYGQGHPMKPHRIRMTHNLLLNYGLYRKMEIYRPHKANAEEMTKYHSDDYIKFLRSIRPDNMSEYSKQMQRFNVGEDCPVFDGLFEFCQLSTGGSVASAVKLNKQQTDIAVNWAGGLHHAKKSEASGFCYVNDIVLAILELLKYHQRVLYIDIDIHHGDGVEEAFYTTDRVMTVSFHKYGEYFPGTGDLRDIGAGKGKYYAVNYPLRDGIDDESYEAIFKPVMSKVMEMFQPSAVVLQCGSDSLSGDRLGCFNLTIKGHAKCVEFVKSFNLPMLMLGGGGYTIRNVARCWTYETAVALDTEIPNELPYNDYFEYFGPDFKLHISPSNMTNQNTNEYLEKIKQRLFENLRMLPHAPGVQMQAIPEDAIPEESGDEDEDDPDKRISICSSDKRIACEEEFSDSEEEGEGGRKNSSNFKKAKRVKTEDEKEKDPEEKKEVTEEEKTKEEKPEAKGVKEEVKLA
# T2 sequence (O15379 whole entry): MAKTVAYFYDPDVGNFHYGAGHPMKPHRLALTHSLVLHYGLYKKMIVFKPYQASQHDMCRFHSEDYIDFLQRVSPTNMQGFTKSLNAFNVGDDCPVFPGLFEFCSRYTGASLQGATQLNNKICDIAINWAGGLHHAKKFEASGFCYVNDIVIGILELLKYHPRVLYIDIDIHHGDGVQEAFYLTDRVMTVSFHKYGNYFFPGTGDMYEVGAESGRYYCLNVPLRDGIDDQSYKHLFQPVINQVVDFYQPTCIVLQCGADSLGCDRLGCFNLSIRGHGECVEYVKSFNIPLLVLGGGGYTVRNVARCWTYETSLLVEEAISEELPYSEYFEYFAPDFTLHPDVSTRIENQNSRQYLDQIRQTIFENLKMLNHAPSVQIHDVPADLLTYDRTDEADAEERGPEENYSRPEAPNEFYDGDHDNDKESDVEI
# T2 sequence (Q9Y618 389-480 partner limits assumed): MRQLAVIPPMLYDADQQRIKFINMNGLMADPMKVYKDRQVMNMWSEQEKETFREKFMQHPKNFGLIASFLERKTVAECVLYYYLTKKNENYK
smiles,measurement,setting,value
CC(=O)N[C@@H](C)C(=O)N[C@H](C(=O)NCC(=O)NCC(=O)N[C@H](C(=O)N[C@@H](CCCCCC(=O)NO)C(=O)N[C@@H](CCCCN)C(=O)N1CCC[C@H]1C(=O)N[C@@H](Cc1c[nH]cn1)C(=O)N[C@@H](CCCNC(=N)N)C(=O)N[C@@H](Cc1ccc(O)cc1)C(=O)N[C@@H](CCCNC(=N)N)C(=O)N1CCC[C@H]1C(=O)NCC(=O)N[C@H](C(=O)N[C@H](C(=O)N[C@@H](Cc1c[nH]c2ccccc12)C(N)=O)C(C)C)[C@@H](C)O)C(C)C)[C@@H](C)O [15a] (Ac-ATGGV[Asu](NHOH)KPHRYRPGTVW-NH2),EC50,[1],5.01 nM
same,EC50,[2],2.4 nM
same,Ki,[3],70 ± 1 nM
same,"HDAC1 dose-response data (relative enzyme activity), Fig. 6 + S. Fig. 10",[3]; log[inhibitor(M)] -4.30103,2.2617 and 2.685
same,"HDAC1 dose-response data (relative enzyme activity), Fig. 6 + S. Fig. 10",[3]; log[inhibitor(M)] -6.39794,54.2155 and 43.2283
same,"HDAC1 dose-response data (relative enzyme activity), Fig. 6 + S. Fig. 10",[3]; log[inhibitor(M)] -7.09691,91.0731 and 84.0543
same,"HDAC1 dose-response data (relative enzyme activity), Fig. 6 + S. Fig. 10",[3]; log[inhibitor(M)] -7.79588,111.87 and 112.408
same,"HDAC1 dose-response data (relative enzyme activity), Fig. 6 + S. Fig. 10",[3]; log[inhibitor(M)] -8.49485,111.243 and 114.065
same,"HDAC1 dose-response data (relative enzyme activity), Fig. 6 + S. Fig. 10",[3]; log[inhibitor(M)] -9.19382,105.717 and 111.571
same,"HDAC1 dose-response data (relative enzyme activity), Fig. 6 + S. Fig. 10",[3]; log[inhibitor(M)] -9.89279,103.869 and 106.196
same,"HDAC1 dose-response data (relative enzyme activity), Fig. 6 + S. Fig. 10",[3]; [9],"100,2561* and 100,875*"
same,"HDAC2 dose-response data (relative enzyme activity), Fig. 6 + S. Fig. 10",[4]; log[inhibitor(M)] -5,7.156 and 8.696
same,"HDAC2 dose-response data (relative enzyme activity), Fig. 6 + S. Fig. 10",[4]; log[inhibitor(M)] -5.69897,27.5449 and 22.7201
same,"HDAC2 dose-response data (relative enzyme activity), Fig. 6 + S. Fig. 10",[4]; log[inhibitor(M)] -7.79588,107.892 and 100.231
same,"HDAC2 dose-response data (relative enzyme activity), Fig. 6 + S. Fig. 10",[4]; [9],"104,1863* and 103,2461*"
same,Ki,"[4]; resynthesized peptide in solution, Cheng-Prusoff, n = 2",70.2 ± 0.5 nM
same,Ki,[5],21.7 ± 0.2 nM
same,"HDAC3 dose-response data (relative enzyme activity), Fig. 6 + S. Fig. 10",[5]; log[inhibitor(M)] -4.30103,0.4402 and 0.4708
same,"HDAC3 dose-response data (relative enzyme activity), Fig. 6 + S. Fig. 10",[5]; log[inhibitor(M)] -5,1.6435 and 1.312
same,"HDAC3 dose-response data (relative enzyme activity), Fig. 6 + S. Fig. 10",[5]; log[inhibitor(M)] -5.69897,7.236 and 5.348
same,"HDAC3 dose-response data (relative enzyme activity), Fig. 6 + S. Fig. 10",[5]; log[inhibitor(M)] -6.39794,28.5726 and 19.4648
same,"HDAC3 dose-response data (relative enzyme activity), Fig. 6 + S. Fig. 10",[5]; log[inhibitor(M)] -7.09691,64.2255 and 50.9194
same,"HDAC3 dose-response data (relative enzyme activity), Fig. 6 + S. Fig. 10",[5]; log[inhibitor(M)] -7.79588,97.9959 and 83.1339
same,"HDAC3 dose-response data (relative enzyme activity), Fig. 6 + S. Fig. 10",[5]; log[inhibitor(M)] -8.49485,112.173 and 97.0745
same,"HDAC3 dose-response data (relative enzyme activity), Fig. 6 + S. Fig. 10",[5]; log[inhibitor(M)] -9.19382,112.635 and 104.337
same,"HDAC3 dose-response data (relative enzyme activity), Fig. 6 + S. Fig. 10",[5]; log[inhibitor(M)] -9.89279,114.089 and 99.1792
same,Ki,[6],1680 ± 13 nM
same,"HDAC8 dose-response data (relative enzyme activity, replicate values), Fig. 6 + S. Fig. 10",[6]; Inhibitor conc [M] -8.49485 (log),104.092 and 106.342
same,"HDAC8 dose-response data (relative enzyme activity, replicate values), Fig. 6 + S. Fig. 10",[6]; Inhibitor conc [M] -9.19382 (log),107.088 and 104.012
same,"HDAC8 dose-response data (relative enzyme activity, replicate values), Fig. 6 + S. Fig. 10",[6]; Inhibitor conc [M] given as -7.09691 (log),97.5487 and 105.051
same,"HDAC8 dose-response data (relative enzyme activity, replicate values), Fig. 6 + S. Fig. 10",[6]; Inhibitor conc [M] given as -7.79588 (log),103.383 and 113.008
same,"HDAC8 dose-response data (relative enzyme activity, replicate values), Fig. 6 + S. Fig. 10",[6]; Inhibitor conc [M] given as -9.89279 (log),103.125 and 102.688
same,"HDAC8 dose-response data (relative enzyme activity), Fig. 6 + S. Fig. 10",[6]; Inhibitor conc [M] -4.30103,7.884 and 8.121
same,"HDAC8 dose-response data (relative enzyme activity), Fig. 6 + S. Fig. 10",[6]; Inhibitor conc [M] -5,24.6267 and 25.2578
same,"HDAC8 dose-response data (relative enzyme activity), Fig. 6 + S. Fig. 10",[6]; Inhibitor conc [M] -5.69897,57.0341 and 59.1741
same,"HDAC8 dose-response data (relative enzyme activity), Fig. 6 + S. Fig. 10",[6]; Inhibitor conc [M] -6.39794,87.2467 and 93.8953
same,residual enzymatic activity relative to control wells,[7]; log[inhibitor(M)] -4.30103,3.78 and 1.49
same,residual enzymatic activity relative to control wells,[7]; log[inhibitor(M)] -5,9.7 and 2.71
same,residual enzymatic activity relative to control wells,[7]; log[inhibitor(M)] -5.69897,22.49 and 13.07
same,residual enzymatic activity relative to control wells,[7]; log[inhibitor(M)] -6.39794,47.9 and 35.05
same,residual enzymatic activity relative to control wells,[7]; log[inhibitor(M)] -7.09691,78.65 and 63.46
same,residual enzymatic activity relative to control wells,[7]; log[inhibitor(M)] -7.79588,92.99 and 81.77
same,residual enzymatic activity relative to control wells,[7]; log[inhibitor(M)] -8.49485,99.83 and 89.79
same,residual enzymatic activity relative to control wells,[7]; log[inhibitor(M)] -9.19382,102.59 and 95.48
same,residual enzymatic activity relative to control wells,[7]; log[inhibitor(M)] -9.89279,101.36 and 96.27
same,residual enzymatic activity relative to control wells,[7]; log[inhibitor(M)] -10.585,"101,22* and 96,07*"
same,Ki,[7]; in solution,114 ± 2 nM
same,residual enzymatic activity relative to control wells,[8]; inhibitor 5 µM,108.47
same,remaining activity at 5 µM,"[8]; inhibitor 5 µM, read-out: residual enzymatic activity relative to control wells",98.7%
same,residual enzymatic activity relative to control wells,[8]; inhibitor 50 µM,74.7
same,remaining activity at 50 µM,"[8]; inhibitor 50 µM, read-out: residual enzymatic activity relative to control wells",89.4%
